The record followed here is ChEMBL document CHEMBL1201862, “PubChem BioAssay data set” (2004).

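How tested: cells in 96-well plates exposed to compound for 48 hours at five concentrations. Abbreviation: GI50, concentration required for 50% inhibition of growth.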 Calls of active or inactive are those of the source. Rule as the data show it: active = GI50 up to about 1.1 µM and inactive = higher.

Some test systems named below: MDA-N; Hs-578T; KM-20L2; DMS-114; 786-0; XF498; SNB-78.
Holding throughout (assay): NCI anticancer screen, dose series, 48 h

Consider `CC(=O)O[C@H]1CC[C@H]2[C@@H]3CC[C@H]4Nc5c(cnn5S(C)(=O)=O)C[C@]4(C)[C@H]3CC[C@]12C`, for which the results for the GI50 in the assay with MDA-N and in the assay with Hs-578T were > 100 µM (inactive) and 45.6 µM (inactive), respectively.
Consider `COc1cc2c(cc1OC)C(=O)/C(=C/c1cc(OC)c(OC)c(OC)c1)C2`, for which the GI50 in the assay with MDA-N and in the assay with Hs-578T was > 100 µM (inactive) each time.
Take `O=C1CN2C(Cl)(Cl)C2(c2ccccc2)c2cc(Cl)ccc2N1CC(F)(F)F` (stereo unspecified): the GI50 in the assay on KM-20L2 is 32.5 µM (inactive); in the assay on DMS-114, 27.2 µM (inactive).
As to `CC(C)C(/C=C/c1ccc(Cl)cc1)=N\NC(=O)N/N=C(/C=C/c1ccc(Cl)cc1)C(C)C`, the values for the GI50 in the assay with MDA-N, in the assay on Hs-578T and in the assay on 786-0 were 36.6 µM (inactive), 20.1 µM (inactive) and 17.6 µM (inactive), respectively.
As to `CC12CCC([C@H](Nc3cc(C(F)(F)F)cc(C(F)(F)F)c3)C1=O)C2(C)C` (stereo partly specified), the GI50 in the assay with 786-0 was > 100 µM (inactive).
For the compound `O=S1(=O)C[C@@H](NCc2ccccc2)[C@H](NCc2ccccc2)C1`, the GI50 with MDA-N and in the assay with Hs-578T was > 100 µM (inactive) in each case.
Take `CN1C2CCC1C(CO)C(=O)C2` (stereo unspecified): the GI50 in the assay with Hs-578T is > 100 µM (inactive).
In the case of `CN1C2CC(=O)CC1[C@H](O)[C@@H]2O`, in the assay with MDA-N, the GI50 is > 100 µM (inactive).
In the case of `CC1OC1C(=O)C1(O)C(C)C(O)C23OC2(C(O)c2c(O)cccc2C3=O)C1O` (stereo unspecified) [CERVICARCIN], the GI50 in the assay on KM-20L2 was 0.214 µM (active); in the assay with DMS-114, 0.048 µM (active); in the assay with XF498, 0.253 µM (active); in the assay with SNB-78 it was 0.267 µM (active).
`COc1ccc2c3c1O[C@H]1C[C@@H](O)C=C[C@@]31CCN(C)C2` [GALANTAMINE]: the GI50 in the assay on KM-20L2 is > 150 µM (inactive); in the assay with DMS-114, > 150 µM (inactive); in the assay with XF498, > 150 µM (inactive); in the assay with SNB-78 it was 103 µM (inactive).
With `O=c1cc[nH]c(=O)[nH]1` [URACIL], the GI50 was 426 µM (inactive) in the assay on KM-20L2, 553 µM (inactive) with DMS-114, 4.23 µM (inactive) in the assay on XF498 and 475 µM (inactive) with SNB-78.
